Source: ChEMBL document CHEMBL1128967, “Quantification of the extent of attenuation of the rate of turnover chemistry of the TEM-1 -lactamase by the -1R-hydroxyethyl group in substrates” (Bioorg Med Chem Lett, 1996)
One block for each molecule: values may come before it.

Legend:
[1] = Compound was evaluated for the beta-lactamase activity as substrate expressed as ratio of kcat/Km.
[2] = (§1) Compound was evaluated for the beta-lactamase activity as a substrate.
[3] = molecular target: Beta-lactamase (Enterobacter cloacae) (UniProt P05364); experiment: as §1
[4] = Compound was evaluated for beta-lactamase activity as a substrate.
[5] = Compound was evaluated for the beta-lactamase activity as a substrate expressed as ratio of kcat/Km.

Sequence of Beta-lactamase (Enterobacter cloacae) (P05364 21-381 limits assumed): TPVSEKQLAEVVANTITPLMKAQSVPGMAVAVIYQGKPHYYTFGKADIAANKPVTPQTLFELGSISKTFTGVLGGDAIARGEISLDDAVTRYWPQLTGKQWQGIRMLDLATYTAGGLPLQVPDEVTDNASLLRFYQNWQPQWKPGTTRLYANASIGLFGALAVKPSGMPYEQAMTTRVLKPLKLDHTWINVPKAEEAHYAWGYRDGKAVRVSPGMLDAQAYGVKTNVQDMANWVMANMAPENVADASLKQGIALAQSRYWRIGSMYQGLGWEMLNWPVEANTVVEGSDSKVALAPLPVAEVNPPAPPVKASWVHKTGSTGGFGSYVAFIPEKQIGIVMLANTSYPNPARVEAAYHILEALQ

k cat/Km [1]: 27 M⁻¹ s⁻¹
Compound: C[C@@H](O)[C@H]1C(=O)N2[C@@H]1SC(C)(C)[C@@H]2C(=O)O

Km [2]: 1.6 µM
Ks [2]: 13.5 µM
k3 [2]: 0.5 s⁻¹
k cat [2]: 0.4 s⁻¹
k cat/Km [2]: 2.8 M⁻¹ s⁻¹
k2 [3]: 3.7 s⁻¹
Compound: C[C@@H](O)[C@@H]1C(=O)N2[C@@H]1SC(C)(C)[C@@H]2C(=O)O

Ratio [1]: 1480 M⁻¹ s⁻¹
Km [4]: 27 µM
k cat [2]: 0.04 s⁻¹
Compound: C[C@@H](O)[C@H]1C(=O)N2C(C(=O)O)=C(SCCNC=N)C[C@H]12

k cat/Km [5]: 6.6 M⁻¹ s⁻¹
Compound: CC1(C)S[C@@H]2CC(=O)N2[C@H]1C(=O)O
